{"source": "patent US20110059948A1", "about": "“QUINOLINE, NAPHTHALENE AND CONFORMATIONALLY CONSTRAINED QUINOLINE OR NAPHTHALENE DERIVATIVES AS ANTI-MYCOBACTERIAL AGENTS” (priority 2008, published 2011)", "key": {"[1]": {"tested_on": "M. tuberculosis H37RV ATCC 27294", "assay": "In vitro growth inhibition assay, BACTEC 460 TB system", "assay_type": "cell-based, Mycobacterium tuberculosis"}, "[2]": {"tested_on": "M. Tuberculosis strain (H37RV)", "assay": "In vitro agar dilution assay (MIC, NCCLS-M24-T2)", "assay_type": "cell-based, Mycobacterium tuberculosis", "details": "for MIC: Mycobacterium tuberculosis, ATCC 27294 / H37Rv, read-out: MIC against M. tuberculosis (H37RV ATCC27294)"}, "[3]": {"tested_on": "M. avium-intracellular Complex", "assay": "In vitro agar dilution assay (MIC)", "assay_type": "cell-based, Mycobacterium avium-intracellular complex", "details": "for MIC M. avium-intracellulare Complex (n = 10): n = 10 strains tested"}, "M. fortuitum": {"tested_on": "M. fortuitum", "assay": "In vitro agar dilution assay (MIC)", "assay_type": "cell-based, Mycobacterium fortuitum", "details": "n = 2 strains tested"}, "M. kansasii": {"tested_on": "M. kansasii", "assay": "In vitro agar dilution assay (MIC)", "assay_type": "cell-based, Mycobacterium kansasii", "details": "n = 2 strains tested"}, "[4]": {"tested_on": "clinical isolates generally susceptible to common tubercular agents", "assay": "microbe, parasite or virus in culture", "assay_type": "cell-based, Mycobacterium tuberculosis", "details": "for MIC M. tuberculosis Sensitive (n = 20): clinical isolates, n = 20 strains tested"}, "[5]": {"tested_on": "M. Tuberculosis strain (H37RV)", "details": "Janssen WO2004/011436; cited from earlier work"}, "[6]": {"details": "agar dilution, Middlebrook 7H10"}}, "note": "Where two headings read alike, the source gives them in different places.", "data": [{"smiles": "COc1nc2ccc(Br)cc2c2c1C(C)(OCC(O)Cn1ccc(-c3ccc(C(F)(F)F)cc3)n1)c1ccccc1-2", "note": "(stereo not drawn)", "values": [{"measurement": "melting point", "value": "65 to 67", "unit": "°C"}]}, {"smiles": "CC(c1cc(F)ccc1Oc1nc2ccc(-n3cc(-c4ccccc4)nn3)cc2cc1Cc1ccccc1)n1ccnc1", "note": "(stereo not drawn)", "values": [{"measurement": "melting point", "value": "118 to 120", "unit": "°C"}]}, {"smiles": "CC(O)c1cc(F)ccc1Oc1nc2ccc(NC(=O)Nc3cccc([N+](=O)[O-])c3)cc2cc1Cc1ccccc1", "note": "(stereo not drawn)", "values": [{"measurement": "melting point", "value": "217 to 219", "unit": "°C"}]}, {"smiles": "COc1nc2ccc(Br)cc2cc1C(c1ccccc1)n1ccnc1", "note": "(racemic)", "values": [{"measurement": "melting point", "value": "161 to 162", "unit": "°C"}]}, {"smiles": "COc1nc2ccc(Br)cc2cc1C(c1ccccc1)n1cccn1", "note": "(racemic)", "values": [{"measurement": "melting point", "value": "142 to 144", "unit": "°C"}]}, {"smiles": "COc1nc2ccc(Br)cc2cc1C(Nc1ccc2oc(=O)ccc2c1)c1ccccc1", "note": "(racemic)", "values": [{"measurement": "melting point", "value": "88 to 89", "unit": "°C"}]}, {"smiles": "COC(=O)C(C(=O)N1CCOCC1)C(c1ccccc1)c1cc2cc(Br)ccc2nc1OC", "note": "(stereo not drawn) [Example 1] [listing 1 of 2 here]", "values": [{"measurement": "melting point", "value": "206 to 208", "unit": "°C"}]}, {"smiles": "COC(=O)C(C(=O)N1CCOCC1)C(c1ccccc1)c1cc2cc(Br)ccc2nc1OC", "note": "(stereo not drawn) [Example 1] [listing 2 of 2 here]", "values": [{"measurement": "melting point", "value": "187.5 to 189.5", "unit": "°C"}]}, {"smiles": "CC(c1cc(F)ccc1Oc1nc2ccc(-n3cc(-c4ccccc4)nn3)cc2cc1Cc1ccccc1)n1ccnc1", "note": "(stereo not drawn) [Example 23]", "values": [{"measurement": "mark “a” at the serial number (99% inhibition at <4 μg/ml), Tables 2-4", "setting": "[1]", "value": "23a (Compounds marked with “a” have shown 99% inhibition at <4 μg/ml)"}, {"measurement": "MIC against M. tuberculosis (H37RV ATCC27294)", "setting": "[2]; [6]", "value": "<3.125", "unit": "µg/mL"}, {"measurement": "MIC M. avium-intracellulare Complex (n = 10)", "setting": "[3]", "value": "<4.0", "unit": "µg/mL"}, {"measurement": "MIC M. fortuitum (n = 2)", "setting": "M. fortuitum", "value": "<4.0", "unit": "µg/mL"}, {"measurement": "MIC M. kansasii (n = 2)", "setting": "M. kansasii", "value": "<4.0", "unit": "µg/mL"}, {"measurement": "MIC M. tuberculosis Sensitive (n = 20)", "setting": "[4]", "value": "<3.125", "unit": "µg/mL"}]}, {"smiles": "COc1cccc(NC(=O)Nc2ccc3nc(Oc4ccc(F)cc4C(C)O)c(Cc4ccccc4)cc3c2)c1", "note": "(stereo not drawn) [Example 26]", "values": [{"measurement": "mark “a” at the serial number (99% inhibition at <4 μg/ml), Tables 2-4", "setting": "[1]", "value": "26a (Compounds marked with “a” have shown 99% inhibition at <4 μg/ml)"}, {"measurement": "MIC against M. tuberculosis (H37RV ATCC27294)", "setting": "[2]; [6]", "value": "<3.125", "unit": "µg/mL"}, {"measurement": "MIC M. avium-intracellulare Complex (n = 10)", "setting": "[3]", "value": "<4.0", "unit": "µg/mL"}, {"measurement": "MIC M. fortuitum (n = 2)", "setting": "M. fortuitum", "value": "<4.0", "unit": "µg/mL"}, {"measurement": "MIC M. kansasii (n = 2)", "setting": "M. kansasii", "value": "<4.0", "unit": "µg/mL"}, {"measurement": "MIC M. tuberculosis Sensitive (n = 20)", "setting": "[4]", "value": "<3.125", "unit": "µg/mL"}]}, {"smiles": "CC(O)c1cc(F)ccc1Oc1nc2ccc(NC(=O)Nc3cccc([N+](=O)[O-])c3)cc2cc1Cc1ccccc1", "note": "(stereo not drawn) [Example 31]", "values": [{"measurement": "mark “a” at the serial number (99% inhibition at <4 μg/ml), Tables 2-4", "setting": "[1]", "value": "31a (Compounds marked with “a” have shown 99% inhibition at <4 μg/ml)"}, {"measurement": "MIC against M. tuberculosis (H37RV ATCC27294)", "setting": "[2]; [6]", "value": "<3.125", "unit": "µg/mL"}, {"measurement": "MIC M. avium-intracellulare Complex (n = 10)", "setting": "[3]", "value": ">8.0", "unit": "µg/mL"}, {"measurement": "MIC M. fortuitum (n = 2)", "setting": "M. fortuitum", "value": ">8.0", "unit": "µg/mL"}, {"measurement": "MIC M. kansasii (n = 2)", "setting": "M. kansasii", "value": ">8.0", "unit": "µg/mL"}, {"measurement": "MIC M. tuberculosis Sensitive (n = 20)", "setting": "[4]", "value": "<6.25", "unit": "µg/mL"}]}, {"smiles": "ON=C1c2ccccc2-c2c1c(N1CCN(c3ccccn3)CC1)nc1ccc(Br)cc21", "note": "[Example 134]", "values": [{"measurement": "mark “a” at the serial number (99% inhibition at <4 μg/ml), Tables 5A-N, 6-10", "setting": "[1]", "value": "134a (Compounds marked with “a” have shown 99% inhibition at <4 μg/ml)"}, {"measurement": "MIC against M. tuberculosis (H37RV ATCC27294)", "setting": "[2]; [6]", "value": "<6.25", "unit": "µg/mL"}, {"measurement": "MIC M. avium-intracellulare Complex (n = 10)", "setting": "[3]", "value": "<6.25", "unit": "µg/mL"}, {"measurement": "MIC M. fortuitum (n = 2)", "setting": "M. fortuitum", "value": ">8.0", "unit": "µg/mL"}, {"measurement": "MIC M. kansasii (n = 2)", "setting": "M. kansasii", "value": ">8.0", "unit": "µg/mL"}, {"measurement": "MIC M. tuberculosis Sensitive (n = 20)", "setting": "[4]", "value": "<6.25", "unit": "µg/mL"}]}, {"smiles": "COc1nc2ccc(Br)cc2cc1C(c1ccccc1)[C@@](O)(CCN(C)C)c1cccc2ccccc12", "note": "(stereo partly drawn) [Example R207910]", "values": [{"measurement": "MIC value against the M. Tuberculosis strain (H37RV)", "setting": "[5]", "value": 0.07, "unit": "µg/mL"}]}, {"smiles": "NNC(=O)c1ccncc1", "note": "[Isoniazid, reference compound]", "values": [{"measurement": "MIC", "setting": "[2]; [6]", "value": 0.25, "unit": "µg/mL"}, {"measurement": "MIC", "setting": "[3]; Mycobacterium, read-out: MIC M. avium-intracellulare Complex (n = 10)", "value": "> 16", "unit": "µg/mL"}, {"measurement": "MIC", "setting": "M. fortuitum; Mycolicibacterium fortuitum, read-out: MIC M. fortuitum (n = 2)", "value": "> 16", "unit": "µg/mL"}, {"measurement": "MIC", "setting": "M. kansasii; Mycobacterium kansasii, read-out: MIC M. kansasii (n = 2)", "value": "> 16", "unit": "µg/mL"}, {"measurement": "MIC", "setting": "[4]; Mycobacterium tuberculosis, read-out: MIC M. tuberculosis Sensitive (n = 20)", "value": 0.25, "unit": "µg/mL"}]}, {"smiles": "CO[C@H]1/C=C/O[C@@]2(C)Oc3c(C)c(O)c4c(O)c(c(/C=N/N5CCN(C)CC5)c(O)c4c3C2=O)NC(=O)/C(C)=C\\C=C\\[C@H](C)[C@H](O)[C@@H](C)[C@@H](O)[C@@H](C)[C@H](OC(C)=O)[C@@H]1C", "note": "[Refampin, Rifampicin, reference compound]", "values": [{"measurement": "MIC", "setting": "[2]", "value": 0.25, "unit": "µg/mL"}]}]}
